# According to US8835506B2, “Methods and related compositions for the treatment of cancer” (STC.UNM, priority 2008, dated 2014):
# Entries after “also recorded” stand apart in the source; their conditions may differ.
# Columns and labels:
# [1] = cited from earlier work
# LNCaP cells [2] = experiment: Cell proliferation assay (CyQUANT NF); type: cell-based, human; conditions: FIG. 7, 4 days
# Protocol: (§1) Cell Proliferation Assay: To determine the number of proliferating cells after astemizole treatment, cells were seeded in 96-well tissue culture plates at 5,000 cells per well in 100 uL of DMEM/FCS. Two days after plating, cells were treated with astemizole at the indicated concentrations. Four days after treatment, cell proliferation was determined using the CyQUANT NF Cell Proliferation Assay Kit (Invitrogen, Carlsbad, Calif.) according to the kit instructions.
# LAPC4 cells = experiment: Cell proliferation assay (CyQUANT NF); type: cell-based, human; conditions: FIG. 7, 4 days
# Protocol: as §1
# DU145 cells = experiment: Cell proliferation assay (CyQUANT NF); type: cell-based, human; conditions: FIG. 7, 4 days
# Protocol: as §1
# PC3 cells [3] = experiment: Cell proliferation assay (CyQUANT NF); type: cell-based, human; conditions: over a 4 day period
# Protocol: as §1
# prostate cancer cells = experiment: Cell death of human cancer cells cultured with AST; type: cell-based
# Protocol: (§2) Cell Viability Assays: Two assays were used to determine cell viability; propidium iodide exclusion with flow cytometry and trypan blue exclusion with hemacytometry. Cells were treated with astemizole at the indicated concentrations for 24 to 96 hours prior to viability analysis. For propidium iodide cell viability determinations, cells were removed from the dishes with 0.05% trypsin. All cell culture medium was collected for the analysis in order to include any cells that may have released from the plate during the incubation period. Propidium iodide was added at a final concentration of 2 μg/ml and cells were analyzed on a Becton Dickinson FACScan flow cytometer. For trypan blue dye exclusion studies, all cell culture medium and cells removed by trypsinization were collected as above. An aliquot of these cells was re-suspended in 0.4% trypan blue. Both viable and non-viable cell counts were obtained by manual counting using a hemacytometer and light microscopy.
# [4] = tested on: PC3 androgen-independent human prostate cancer cells; experiment: Cell death by trypan blue uptake; type: cell-based
# Protocol: as §2
# [5] = tested on: LNCaP human prostate cancer cells; experiment: Cytotoxicity of AST in culture; type: cell-based
# Protocol: as §2
# [6] = cited from earlier work; remark: listed apart in the source
# skin cancer cells (SCC) = experiment: Cell death by trypan blue uptake and hemacytometry; type: cell-based; conditions: AST up to 15 μM; listed as AST
# Protocol: as §2
# [7] = tested on: LAPC4 human prostate cancer cells; experiment: Cell death by trypan blue uptake and hemacytometry; type: cell-based
# Protocol: as §2
# [8] = tested on: CWRv22 human prostate cancer cells; experiment: Cell death by trypan blue uptake and hemacytometry; type: cell-based
# Protocol: as §2
# PC3 cells [9] = experiment: Hypodiploid population by propidium iodide incorporation and flow cytometry (apoptosis hallmarks); type: cell-based, human
# Text: Multiple mechanisms could account for the cell death observed in cancer cells from treatment with AST. […] Thus, administering the agents identified above that induce intracellular granularity in cancer cells may produce cell death through an autophagic mechanism.
# LNCaP cells [10] = experiment: HyperCyt high-throughput flow cytometry, side scatter as endpoint for intracellular granularity; cell death seen as adherent cells becoming non-adherent; type: cell-based, human
# Protocol: HyperCyt and High-throughput Data Analysis: The HyperCyt® cytometry analysis system interfaces a flow cytometer and an autosampler. While the sampling probe moves from well to well, a peristaltic pump sequentially aspirates a small volume from each well. A bubble of air, created by the continuously running pump, separates samples from individual wells. Sample and bubble volumes are determined by the time the sampling probe is in a well (sip time) or in taking air while moving from well to well (up time). HyperCyt® sampling of a single 384-well plate is completed in less than 15 minutes. This system has been validated using cell-based high-throughput endpoint assays for ligand binding, surface antigen expression, and immunophenotyping.
# The air-bubble separated samples, collected by HyperCyt®, are delivered continuously to the cytometer. The data accumulates as a single, time-resolved file with gaps corresponding to air-bubbles. Both forward and side light scattering properties of treated LNCaP cells were measured using a 488 nm laser. Time-resolved data were analyzed by proprietary software (IDLQuery) set to search for 384 separate data clusters. Data from negative (0.1% DMSO) replicate wells were pooled and used to set gates that define granularity in vehicle-treated LNCaP cells. […] A gate is set reflecting this distinction that is then applied to each data cluster. These values are automatically exported to a Microsoft Excel spreadsheet template that calculates percent side scatter shift in individual treated samples.
# (§3) Microscopic and Flow Cytometric Scatter Analysis: Light microscopy images of prostate cancer cells in culture were collected using an Olympus IX70 inverted microscope and a 20× objective. Flow cytometric analysis of forward scatter (FSC) and side scatter (SSC) were preformed using the UNM Shared Flow Cytometry Resource on a Cytomation Mo Flo, an Epics Elite, a Becton Dickinson FACScan, or a Becton Dickinson FACS Calibur.
# [11] = tested on: 22Rv1 prostate cancer cells; experiment: Viability by trypan blue exclusion, astemizole alone or with docetaxel or radiation; type: cell-based, human; parameters: key to action determined with combination therapy: &: Additive action determined with combination therapy.; #: Synergistic action determined with combination therapy; conditions: for level of cell killing in combination: 24 hours
# Protocol: as §2
# Compounds according to the present invention may also function as radiosensitizers in addition to their anticancer activity. A study was performed showing prostate cancer cell killing actions of astemizole in combination with other therapeutic interventions. Astemizole alone produced a decrease in 22Rv1 prostate cancer cell viability with 8 μM 24 hours after treatment. […] This is true of the other agents which are described herein.
# [12] = tested on: LC3 II band in CWRv22 cells; experiment: LC3 II band induction (autophagy marker); type: cell-based, human; conditions: 10 μM AST, 6 hours
# [13] = in vivo; cited from earlier work
# [14] = rare cases, patients exceeding recommended doses; cited from earlier work
# [15] = tested on: PC3 human prostate cancer cells; experiment: Light microscopy of intracellular granularity; type: cell-based; conditions: FIG. 3
# Text: as §3
# advanced prostate cancer = advanced prostate cancer patients, on average; cited from earlier work
compound,measurement,setting,value
1-[(4-fluorophenyl)methyl]-N-[1-[2-(4-ethoxyphenyl)ethyl]-4-piperidyl]benzoimidazol-2-amine [Astemizole],absorption,[1]; from the gastrointestinal tract,rapidly absorbed
same,excretion,[1]; man,excreted as metabolites chiefly in the feces
same,half-life of the active ingredient,[1]; man,approximately 1 day
same,metabolism,[1]; man,extensively metabolized
same,prostate cancer cell growth,LNCaP cells [2],significant reduction
same,prostate cancer cell growth,LAPC4 cells,significant reduction
same,prostate cancer cell growth,DU145 cells,significant reduction
same,concentration inhibiting cell growth,PC3 cells [3],≥ 1 µM
same,concentration at which cells undergo rapid cell death,prostate cancer cells,above 5 μM
same,time to cell death after treatment,[4],≤ 24 h
same,cell death,"[4]; 10 μM AST, 48 hours",greater than 25%
same,cells dead,"[4]; 15 μM AST, 48 hours",~100%
same,cell killing by AST treatment,[5],dose-response to cell killing
same,protein binding,[6],around 96%
same,cell death by AST treatment,skin cancer cells (SCC),resistant to cell death; also recorded: not killed
same,cell killing by AST treatment,[7],dose-response to cell killing
same,cells dead,"[7]; 6 μM AST, within 24 hours",80%
same,cell killing by AST treatment,[8],dose-response to cell killing
same,cells dead,"[8]; 6 μM AST, within 24 hours",80%
same,hallmarks of apoptotic cell death (hypodiploid population),PC3 cells [9],does not produce hallmarks of apoptotic cell death
same,cancer cell intracellular granularity by SSC flow cytometry,"LNCaP cells [10]; FIG. 2, prostate cancer cells",significantly increase
same,dose at which cell death is seen,LNCaP cells [10]; FIG. 4 dose-response,10 µM
same,dose range of AST-induced increases in intracellular granularity,LNCaP cells [10]; FIG. 4 dose-response,up to 3 μM
same,action determined with combination therapy,[11]; 2 μM astemizole + 10 nM docetaxel,&
same,"% Viability, Mean (SD)","[11]; 2 μM astemizole + 10 nM docetaxel, 24 h, n = 3",71.3%
same,action determined with combination therapy,[11]; 2 μM astemizole + 10 Gy radiation,&
same,"% Viability, Mean (SD)","[11]; 2 μM astemizole + 10 Gy radiation, 24 h, n = 3",63.5%
same,"% Viability, Mean (SD)","[11]; 2 μM astemizole alone, 24 h, n = 3",88.2 (4.9) %
same,action determined with combination therapy,[11]; 4 μM astemizole + 10 nM docetaxel,&
same,"% Viability, Mean (SD)","[11]; 4 μM astemizole + 10 nM docetaxel, 24 h, n = 3",74.4%
same,action determined with combination therapy,[11]; 4 μM astemizole + 10 Gy radiation,#
same,"% Viability, Mean (SD)","[11]; 4 μM astemizole + 10 Gy radiation, 24 h, n = 3",57.4%
same,"% Viability, Mean (SD)","[11]; 4 μM astemizole alone, 24 h, n = 3",90.6 (1.2) %
same,action determined with combination therapy,[11]; 8 μM astemizole + 10 nM docetaxel,&
same,"% Viability, Mean (SD)","[11]; 8 μM astemizole + 10 nM docetaxel, 24 h, n = 3",49.7%
same,action determined with combination therapy,[11]; 8 μM astemizole + 10 Gy radiation,#
same,"% Viability, Mean (SD)","[11]; 8 μM astemizole + 10 Gy radiation, 24 h, n = 3",22.2%
same,"% Viability, Mean (SD)","[11]; 8 μM astemizole alone, 24 h, n = 3",64.3 (8.1) %
same,"cell viability, astemizole alone","[11]; 8 μM, 24 hours after treatment",decrease
same,level of cell killing in combination,"[11]; 2, 4 and 8 μM astemizole with 10 nM docetaxel",additive levels of cell killing
same,level of cell killing in combination,"[11]; 2, 4 and 8 μM astemizole with 10 gray radiation",synergistic levels of cell killing
same,LC3 II band associated with autophagic pathways,[12],induction of an LC3 II band
same,LC3 II band associated with autophagic pathways,[12]; listed as AST,increase in the LC3 II band
same,crossing of the blood-brain barrier,[13],does not cross the blood-brain barrier
same,serious life-threatening cardiovascular adverse events,[14],"QT-prolongation, torsades de pointes, and other ventricular arrhythmias"
same,intracellular granularity observed by light microscopy,[15],increase in intracellular granularity
CC(=O)O[C@@]12CO[C@@H]1C[C@H](O)[C@@]1(C)C(=O)[C@H](O)C3=C(C)[C@@H](OC(=O)[C@H](O)[C@@H](NC(=O)OC(C)(C)C)c4ccccc4)C[C@@](O)([C@@H](OC(=O)c4ccccc4)[C@H]21)C3(C)C [Taxotere],prolongation of life,advanced prostate cancer,2.5 months
CC(=O)O[C@@]12CO[C@@H]1C[C@H](O)[C@@]1(C)C(=O)[C@H](O)C3=C(C)[C@@H](OC(=O)[C@H](O)[C@@H](NC(=O)OC(C)(C)C)c4ccccc4)C[C@@](O)([C@@H](OC(=O)c4ccccc4)[C@H]21)C3(C)C [docetaxel],viability at 0.01 µM,"[11]; Homo sapiens, 22Rv1, 10 nM docetaxel alone (0 μM astemizole), 24 h, n = 3, read-out: % Viability, Mean (SD)",80.7%
